Data as given in patent publication US12209145B2, “PCSK9 antagonist compounds” (Merck Sharp & Dohme LLC, priority 2018, dated 2025).
Starred links: 1 amine or outer side, 2 acyl side, 3 side chain; linkers in the order of their positions; H or OH if unused. Positions of bridges follow the written chain, without caps; N, C: chain ends. Non-standard residues stand in square brackets, D forms with d. Residues, ends and D or L forms follow the SMILES beside them. *: point of attachment. X1 = CC1(C)C(/C=C/C=C/C=C2\N(CCCS(=O)(=O)O)c3ccc(S(=O)(=O)O)cc3C2(C)CCCCCC(=O)*)=[N+](CCCS(=O)(=O)[O-])c2ccc(S(=O)(=O)O)cc21; Trp(5-F) = N[C@@H](Cc1c[nH]c2ccc(F)cc12)C(=O)O; mXylylene = c1cc(C[*:1])cc(C[*:2])c1; αMeP = C[C@@]1(C(=O)O)CCCN1; Mpa = O=C(O)CCS

Key:
Type in all cases: binding
PCSK9 [1] = biological target: T1, PCSK9 (Homo sapiens, UniProt Q8NBP7); assay: PCSK9 Alexa FRET Plus TR-FRET assay (displacement of AlexaFluor647 tagged cyclic peptide Reagent B); conditions: for Ki: Ki Plus, 0.5 nM biotinylated PCSK9, 960 nM AF cyclic peptide Reagent B, Ki calculated from IC50 and KD of AF peptide
T1 construct: Biotinylated PCSK9 was obtained commercially; purchased
T1 sequence (Q8NBP7 153-692): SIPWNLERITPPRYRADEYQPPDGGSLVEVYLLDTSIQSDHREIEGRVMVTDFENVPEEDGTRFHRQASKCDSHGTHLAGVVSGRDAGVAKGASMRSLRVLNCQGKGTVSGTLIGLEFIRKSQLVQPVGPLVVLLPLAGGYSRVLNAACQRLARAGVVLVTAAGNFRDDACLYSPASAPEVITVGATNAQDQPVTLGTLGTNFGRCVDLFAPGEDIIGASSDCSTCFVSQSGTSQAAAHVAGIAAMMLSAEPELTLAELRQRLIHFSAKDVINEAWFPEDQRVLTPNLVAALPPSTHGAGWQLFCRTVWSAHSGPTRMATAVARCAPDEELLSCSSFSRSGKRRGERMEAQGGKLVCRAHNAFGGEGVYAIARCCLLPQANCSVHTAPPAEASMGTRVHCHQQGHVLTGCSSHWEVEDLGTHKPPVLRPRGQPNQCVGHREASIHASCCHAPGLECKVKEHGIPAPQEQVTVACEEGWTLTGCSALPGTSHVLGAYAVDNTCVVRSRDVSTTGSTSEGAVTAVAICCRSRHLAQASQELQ
Description: (§1) The following is a description of the assays used to determine activity of compounds of the invention, and any comparator compounds reported, toward PCSK9 antagonism. Biotinylated PCSK9 was obtained commercially.
A solution containing 1 nM biotinylated PCSK9+2.5 nM Lance Streptavidin Europium (Strep-Eu) is made in 50 mM HEPES pH 7.4, 0.15 M NaCl, 5 mM CaCl2, 0.01% BSA, and 0.01% Surfactant P20. A separate solution containing 1920 nM of the AlexaFluor tagged cyclic peptide is made in the same buffer system. An Echo is used to transfer 0.075 ul of compound plus 0.675 ul of DMSO to each well of an assay plate followed by the addition of 15 ul of PCSK9+Stept-Eu and 15 ul of AF peptide. The final assay volume is 30.750 ul containing 0.5 nM PCSK9, 1.25 nM Strep-Eu, and 960 nM AF cyclic peptide. The reaction is incubated at room temperature for at least two hours prior to fluorescence measurements using an Envision Multilabel Reader. IC50 values are determined by fitting data to a sigmoidal dose-response curve using nonlinear regression. Ki is then calculated from the IC50 and the KD of AF cyclic peptide. Counts (B-counts) of the europium-labeled PCSK9 are followed to observe if compounds are adversely affecting PCSK9. A fall off of the B-counts is likely indicates a false positive of inhibition. Data from this procedure is reported as “P=‘numerical value’ (nanomolar)”
(§2) Activity data obtained by one or both of the above-described procedures is reported for selected example compounds of the invention in the following format: Example No.: A (standard TR Fret)=‘numerical value’; P (Alexa Fret plus standard TR Fret)=‘numerical value’/, note that all values reported are nanomolar.

PCSK9 [2] = biological target: T1, PCSK9; assay: PCSK9 Alexa FRET Ultra TR-FRET assay (displacement of AlexaFluor647 tagged cyclic peptide); conditions: for Ki: Ki Ultra, 0.5 nM biotinylated PCSK9, 960 nM AF cyclic peptide, Ki calculated from IC50 and KD of AF peptide
Description: as §1
A solution containing 1 nM biotinylated PCSK9+2.5 nM Lance Streptavidin Europium (Strep-Eu) is made in 50 mM HEPES pH 7.4, 0.15 M NaCl, 5 mM CaCl2, 0.01% BSA, and 0.01% Surfactant P20. A separate solution containing 1920 nM of the AlexaFluor tagged cyclic peptide is made in the same buffer system. An Echo is used to transfer 0.015 ul of compound plus 0.735 ul of DMSO to each well of an assay plate followed by the addition of 15 ul of PCSK9+Stept-Eu and 15 ul of AF peptide. The final assay volume is 30.750 ul containing 0.5 nM PCSK9, 1.25 nM Strep-Eu, and 960 nM AF cyclic peptide. The reaction is incubated at room temperature for at least two hours prior to fluorescence measurements using an Envision Multilabel Reader. IC50 values are determined by fitting data to a sigmoidal dose-response curve using nonlinear regression. Ki is then calculated from the IC50 and the KD of AF cyclic peptide. Counts (B-counts) of the europium-labeled PCSK9 are followed to observe if compounds are adversely affecting PCSK9. A fall off of the B-counts is likely indicates a false positive of inhibition. Data from this procedure is reported as “Ki Ultra=‘numerical value’ (data reported is nanomolar)”

PCSK9 [3] = biological target: T1, PCSK9; assay: PCSK9 Alexa FRET Standard TR-FRET assay (displacement of AlexaFluor647 tagged cyclic peptide Reagent A)
Description: as §1
Alexa FRET Standard TR-FRET
A solution containing 1 nM biotinylated PCSK9+2.5 nM Lance Streptavidin Europium (Strep-Eu) is made in 50 mM HEPES pH 7.4, 0.15 M NaCl, 5 mM CaCl2, 0.01% BSA, and 0.01% Surfactant P20. A separate solution containing 40 nM of the AlexaFluor tagged cyclic peptide is made in the same buffer system. An Echo is used to transfer 0.750 ul of compound to an assay plate followed by the addition of 15 ul of PCSK9+Stept-Eu and 15 ul of AF peptide. The final assay volume is 30.750 ul containing 0.5 nM PCSK9, 1.25 nM Strep-Eu, and 20 nM AF cyclic peptide. The reaction is incubated at room temperature for at least two hours prior to fluorescence measurements using an Envision Multilabel Reader. […] values are determined by fitting data to a sigmoidal dose-response curve using nonlinear regression. Ki is then calculated from the IC50 and the KD of AF cyclic peptide. Counts (B-counts) of the europium-labeled PCSK9 are followed to observe if compounds are adversely PCSK9. A fall off of the B-counts likely indicates a false positive of inhibition. Data from this procedure is reported as “A=‘numerical value’ (nanomolar)”
as §2

| Kd (PCSK9 [1]; probe of the Alexa FRET Plus assay) | Kd (PCSK9 [2]; probe of the Alexa FRET Ultra assay) | Structure (SMILES) | Ki (PCSK9 [1]) | Ki (PCSK9 [2]) | Ki (PCSK9 [3]) |
| --- | --- | --- | --- | --- | --- |
| – | – | COc1ccc(C[C@@H]2NC(=O)[C@H]([C@@H](C)O)NC(=O)[C@@H]3[C@@H]4CCN3C(=O)[C@@H]3Cc5cn(c6ccc(F)cc56)C/C=C/CC[C@@H](NC(=O)CCC(=O)N[C@@H](C)C(=O)N[C@H](CNC(=O)CCCCC[N+](C)(C)C)C(=O)N[C@@H](Cc5cccc(c5)CNC(=O)CO4)C(=O)N3)c3ccc(cc3)CCNC(=O)[C@]3(C)CCCN3C2=O)cc1 [Ex-47] | 0.0147 nM | 0.0119 nM | – |
| – | – | COc1ccc(C[C@@H]2NC(=O)[C@H]([C@@H](C)O)NC(=O)[C@@H]3C4CCN3C(=O)[C@@H]3Cc5cn(c6ccc(F)cc56)CCCCC[C@@H](NC(=O)CCC(=O)N[C@@H](C)C(=O)N[C@H](CNC(=O)CCOCCOCC[N+](C)(C)C)C(=O)N[C@@H](Cc5cccc(c5)CNC(=O)CO4)C(=O)N3)c3ccc(cc3)CCNC(=O)[C@]3(C)CCCN3C2=O)cc1 [Ex-48] | 0.0117 nM | 0.0154 nM | – |
| – | – | COc1ccc(C[C@@H]2NC(=O)[C@H]([C@@H](C)O)NC(=O)[C@@H]3[C@@H]4CCN3C(=O)[C@@H]3Cc5cn(c6ccc(F)cc56)CCCCOCc5cc(ccc5CNC(=O)CCC(=O)N[C@@H](C)C(=O)N[C@H](CNC(=O)CCCCC[N+](C)(C)C)C(=O)N[C@@H](Cc5cccc(c5)CNC(=O)CO4)C(=O)N3)CCNC(=O)[C@]3(C)CCCN3C2=O)cc1 [Ex-49] | 0.00716 nM | 0.00414 nM | – |
| – | – | COc1ccc(C[C@@H]2NC(=O)[C@H]([C@@H](C)O)NC(=O)[C@@H]3[C@@H]4CCN3C(=O)[C@@H]3Cc5cn(c6ccc(F)cc56)CCCCCCN(Cc5ccc(cc5)CCNC(=O)[C@]5(C)CCCN5C2=O)C(=O)CCC(=O)N[C@@H](C)C(=O)N[C@H](CNC(=O)CCOCCOCCCN(C)C)C(=O)N[C@@H](Cc2cccc(c2)CNC(=O)CO4)C(=O)N3)cc1 [Ex-50] | 0.0105 nM | 0.00443 nM | < 1.26 nM |
| – | – | COc1ccc(C[C@@H]2NC(=O)[C@H]([C@@H](C)O)NC(=O)[C@@H]3[C@@H]4CCN3C(=O)[C@@H]3Cc5cn(c6ccc(F)cc56)C/C=C/CCCN(Cc5ccc(cc5)CCNC(=O)[C@]5(C)CCCN5C2=O)C(=O)CCC(=O)N[C@@H](C)C(=O)N[C@H](CN)C(=O)N[C@@H](Cc2cccc(c2)CNC(=O)CO4)C(=O)N3)cc1 [Ex-51] | < 0.00558 nM | 0.00597 nM | < 1.26 nM |
| – | – | COc1ccc(C[C@@H]2NC(=O)[C@H]([C@@H](C)O)NC(=O)[C@@H]3[C@@H]4CCN3C(=O)[C@@H]3Cc5cn(c6ccc(F)cc56)C/C=C/CCCN(Cc5ccc(cc5)CCNC(=O)[C@]5(C)CCCN5C2=O)C(=O)CCC(=O)N[C@@H](C)C(=O)N[C@H](CNC(=O)CCOCCOCC[N+](C)(C)C)C(=O)N[C@@H](Cc2cccc(c2)CNC(=O)CO4)C(=O)N3)cc1 [Ex-52] | < 0.00558 nM | 0.00359 nM | < 1.26 nM |
| – | – | COc1ccc(C[C@@H]2NC(=O)[C@H]([C@@H](C)O)NC(=O)[C@@H]3[C@@H]4CCN3C(=O)[C@@H]3Cc5cn(c6ccc(F)cc56)C/C=C/COc5cc(ccc5CNC(=O)CCC(=O)N[C@@H](C)C(=O)N[C@H](CN)C(=O)N[C@@H](Cc5cccc(c5)CNC(=O)CO4)C(=O)N3)CCNC(=O)[C@]3(C)CCCN3C2=O)cc1 [Ex-53] | 0.0963 nM | 0.215 nM | < 1.26 nM |
| – | – | COc1ccc(C[C@@H]2NC(=O)[C@H]([C@@H](C)O)NC(=O)[C@@H]3[C@@H]4CCN3C(=O)[C@@H]3Cc5cn(c6ccc(F)cc56)CCCCOc5cc(ccc5CNC(=O)CCC(=O)N[C@@H](C)C(=O)N[C@H](CN)C(=O)N[C@@H](Cc5cccc(c5)CNC(=O)CO4)C(=O)N3)CCNC(=O)[C@]3(C)CCCN3C2=O)cc1 [Ex-54] | 0.367 nM | 0.484 nM | < 1.26 nM |
| – | – | COc1ccc(C[C@@H]2NC(=O)[C@H]([C@@H](C)O)NC(=O)[C@@H]3[C@@H]4CCN3C(=O)[C@@H]3Cc5cn(c6ccc(F)cc56)CCCCOc5cc(ccc5CNC(=O)CCC(=O)N[C@@H](C)C(=O)N[C@H](CNC(=O)CCOCCOCC[N+](C)(C)C)C(=O)N[C@@H](Cc5cccc(c5)CNC(=O)CO4)C(=O)N3)CCNC(=O)[C@]3(C)CCCN3C2=O)cc1 [Ex-55] | 0.0724 nM | 0.238 nM | < 1.26 nM |
| – | – | COc1ccc(C[C@@H]2NC(=O)[C@H]([C@@H](C)O)NC(=O)[C@@H]3[C@@H]4CCN3C(=O)[C@@H]3Cc5cn(c6ccc(F)cc56)CCCCCCN(Cc5ccc(cc5)CCNC(=O)[C@]5(C)CCCN5C2=O)C(=O)CCC(=O)N[C@@H](C)C(=O)N[C@H](CNC(=O)Cc2cccc(OCCC[N+](C)(C)C)c2)C(=O)N[C@@H](Cc2cccc(c2)CNC(=O)CO4)C(=O)N3)cc1 [Ex-56] | 0.0224 nM | 0.00481 nM | < 1.26 nM |
| – | – | COCCC[N+](C)(C)CCCCCC(=O)NC[C@H]1NC(=O)[C@H](C)NC(=O)CCC(=O)N2CCCCCCn3cc(c4cc(F)ccc43)C[C@@H]3NC(=O)[C@H](Cc4cccc(c4)CNC(=O)CO[C@H]4CCN(C3=O)[C@@H]4C(=O)N[C@@H]([C@@H](C)O)C(=O)N[C@@H](Cc3ccc(OC)cc3)C(=O)N3CCC[C@@]3(C)C(=O)NCCc3ccc(cc3)C2)NC1=O [Ex-57] | < 0.00558 nM | 0.00162 nM | < 1.26 nM |
| – | – | COc1ccc(C[C@@H]2NC(=O)[C@H]([C@@H](C)O)NC(=O)[C@@H]3[C@@H]4CCN3C(=O)[C@@H]3Cc5cn(c6ccc(F)cc56)CCCCCCN(Cc5ccc(cc5)CCNC(=O)[C@]5(C)CCCN5C2=O)C(=O)CCC(=O)N[C@@H](C)C(=O)N[C@H](CNC(=O)CCOCCCCC[N+](C)(C)C)C(=O)N[C@@H](Cc2cccc(c2)CNC(=O)CO4)C(=O)N3)cc1 [Ex-59] | 0.00788 nM | 0.00496 nM | – |
| – | – | COc1ccc(C[C@@H]2NC(=O)[C@H]([C@@H](C)O)NC(=O)[C@@H]3[C@@H]4CCN3C(=O)[C@@H]3Cc5cn(c6ccc(F)cc56)CCCCCCN(Cc5ccc(cc5)CCNC(=O)[C@]5(C)CCCN5C2=O)C(=O)CCC(=O)N[C@@H](C)C(=O)N[C@H](CNC(=O)CNC(=O)CCCCC[N+](C)(C)C)C(=O)N[C@@H](Cc2cccc(c2)CNC(=O)CO4)C(=O)N3)cc1 [Ex-60] | 0.00651 nM | 0.00531 nM | – |
| – | – | COc1ccc(C[C@@H]2NC(=O)[C@H]([C@@H](C)O)NC(=O)[C@@H]3[C@@H]4CCN3C(=O)[C@@H]3Cc5cn(c6ccc(F)cc56)CCCCCCN(Cc5ccc(cc5)CCNC(=O)[C@]5(C)CCCN5C2=O)C(=O)CCC(=O)N[C@@H](C)C(=O)N[C@H](CNC(=O)CCCCCCCC[N+](C)(C)C)C(=O)N[C@@H](Cc2cccc(c2)CNC(=O)CO4)C(=O)N3)cc1 [Ex-61] | 0.00747 nM | 0.00654 nM | – |
| 35 nM | 0.99 nM | COc1ccc(C[C@@H]2NC(=O)[C@H](Cc3c[nH]cn3)NC(=O)[C@H](CC(=O)O)NC(=O)[C@H](Cc3c[nH]c4ccc(F)cc34)NC(=O)[C@H](Cc3c[nH]c4ccc(F)cc34)NC(=O)[C@@H](C)NC(=O)[C@H](CCCCNC(=O)CCCCCC3(C)/C(=C/C=C/C=C/C4=[N+](CCCS(=O)(=O)[O-])c5ccc(S(=O)(=O)O)cc5C4(C)C)N(CCCS(=O)(=O)O)c4ccc(S(=O)(=O)O)cc43)NC(=O)CCSCc3cccc(c3)CSC[C@@H](C(N)=O)NC(=O)[C@]3(C)CCCN3C2=O)cc1 (some centres unmarked) [Reagent B, reference compound] ([Mpa]K(X1)[dA][Trp(5-F)][Trp(5-F)]DHY(Me)[αMeP]C-NH2; linker 1-10 via mXylylene) | – | – | – |
